Reference: patent US7387997B2 (University of Utah, priority 2004, dated 2008)
pIC50, pKi: −log10 of the molar value. Several values for one entry are separate records, joined by “and”; a condition that tells them apart may be missing. Equal values may be shown once. Entries after “also recorded” stand apart in the source; their conditions may differ. Where a SMILES comes first, the peptide text is derived from it. Bridges are numbered along the chain shown (N, C = ends).

Experiments:
Rat α6/α3β2β3 nAChR = target: T1, Rat α6/α3β2β3 nAChR (Rattus norvegicus, UniProt P04757+P12390+P43143); test: cell-based; type: cell-based
T1 construct: amino acids 1 to 237 of the rat α6 subunit protein; amino acids 233 to 499 of the rat α3 subunit protein; expressed in transfected cells; host or cells: Xenopus laevis oocytes, cRNA injected (pT7TS/rα6α3 for the chimera)
T1 sequence (P43143 31-237 limits assumed): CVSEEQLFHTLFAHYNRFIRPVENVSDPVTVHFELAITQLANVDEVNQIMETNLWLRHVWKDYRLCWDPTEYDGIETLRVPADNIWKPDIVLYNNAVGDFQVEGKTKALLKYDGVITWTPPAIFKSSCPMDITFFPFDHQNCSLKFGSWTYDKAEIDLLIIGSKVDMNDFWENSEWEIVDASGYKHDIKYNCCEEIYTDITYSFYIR
T1 sequence (P04757 233-499 limits assumed): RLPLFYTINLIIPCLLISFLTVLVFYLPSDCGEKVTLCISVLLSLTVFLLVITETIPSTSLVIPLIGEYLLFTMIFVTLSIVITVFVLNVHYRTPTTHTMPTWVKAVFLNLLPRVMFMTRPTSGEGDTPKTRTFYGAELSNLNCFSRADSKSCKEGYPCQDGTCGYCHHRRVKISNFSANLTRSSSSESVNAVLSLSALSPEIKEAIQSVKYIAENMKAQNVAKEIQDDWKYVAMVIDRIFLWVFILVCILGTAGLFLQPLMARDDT
T1 sequence (P12390 25-500 limits assumed): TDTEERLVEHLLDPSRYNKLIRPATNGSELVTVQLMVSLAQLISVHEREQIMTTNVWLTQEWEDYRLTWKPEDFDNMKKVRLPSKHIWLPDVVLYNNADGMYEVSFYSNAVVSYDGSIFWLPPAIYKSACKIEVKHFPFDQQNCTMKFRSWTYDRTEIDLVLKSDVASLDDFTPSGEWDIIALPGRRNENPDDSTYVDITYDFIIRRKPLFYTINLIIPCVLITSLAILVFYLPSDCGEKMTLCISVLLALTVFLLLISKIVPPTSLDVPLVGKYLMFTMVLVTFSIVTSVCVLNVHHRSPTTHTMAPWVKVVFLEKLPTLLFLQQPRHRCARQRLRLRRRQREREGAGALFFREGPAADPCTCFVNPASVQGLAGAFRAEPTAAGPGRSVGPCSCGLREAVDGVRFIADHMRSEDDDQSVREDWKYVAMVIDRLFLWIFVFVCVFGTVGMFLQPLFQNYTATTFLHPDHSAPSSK

α6/α3β2 nAChR = target: T2, α6/α3β2 nAChR (Rattus norvegicus, UniProt P04757+P12390+P43143); test: cell-based
T2 construct: amino acids 1 to 237 of the rat α6 subunit protein; amino acids 233 to 499 of the rat α3 subunit protein; expressed in transfected cells; host or cells: Xenopus laevis oocytes, cRNA injected
T2 sequence (P43143 31-237 limits assumed): as the sequence (P43143 31-237 limits assumed) above
T2 sequence (P04757 233-499 limits assumed): as the sequence (P04757 233-499 limits assumed) above
T2 sequence (P12390 25-500 limits assumed): as the sequence (P12390 25-500 limits assumed) above

Rat α3β2 nAChR = target: T3, Rat α3β2 nAChR (Rattus norvegicus, UniProt P04757+P12390); test: cell-based; type: cell-based
T3 construct: expressed in transfected cells; host or cells: Xenopus laevis oocytes, cRNA injected
T3 sequence (P04757 26-499 limits assumed): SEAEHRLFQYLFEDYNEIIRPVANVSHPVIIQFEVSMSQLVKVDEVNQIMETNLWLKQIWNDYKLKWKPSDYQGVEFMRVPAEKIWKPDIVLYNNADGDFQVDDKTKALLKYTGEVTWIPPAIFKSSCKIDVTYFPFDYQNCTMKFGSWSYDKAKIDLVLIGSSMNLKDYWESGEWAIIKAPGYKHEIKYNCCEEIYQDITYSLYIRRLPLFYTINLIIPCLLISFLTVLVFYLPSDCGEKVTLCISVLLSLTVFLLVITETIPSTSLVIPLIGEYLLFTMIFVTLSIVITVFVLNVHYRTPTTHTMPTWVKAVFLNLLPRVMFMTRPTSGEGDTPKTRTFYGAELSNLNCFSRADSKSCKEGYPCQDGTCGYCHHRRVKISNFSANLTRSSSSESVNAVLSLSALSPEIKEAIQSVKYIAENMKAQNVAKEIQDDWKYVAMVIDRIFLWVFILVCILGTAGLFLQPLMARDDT
T3 sequence (P12390 25-500 limits assumed): as the sequence (P12390 25-500 limits assumed) above

α7 nAChR = target: T4, α7 nAChR (Rattus norvegicus, UniProt Q05941); test: cell-based; type: cell-based
T4 construct: expressed in transfected cells; host or cells: Xenopus laevis oocytes, cRNA injected
T4 sequence (Q05941 23-502 limits assumed): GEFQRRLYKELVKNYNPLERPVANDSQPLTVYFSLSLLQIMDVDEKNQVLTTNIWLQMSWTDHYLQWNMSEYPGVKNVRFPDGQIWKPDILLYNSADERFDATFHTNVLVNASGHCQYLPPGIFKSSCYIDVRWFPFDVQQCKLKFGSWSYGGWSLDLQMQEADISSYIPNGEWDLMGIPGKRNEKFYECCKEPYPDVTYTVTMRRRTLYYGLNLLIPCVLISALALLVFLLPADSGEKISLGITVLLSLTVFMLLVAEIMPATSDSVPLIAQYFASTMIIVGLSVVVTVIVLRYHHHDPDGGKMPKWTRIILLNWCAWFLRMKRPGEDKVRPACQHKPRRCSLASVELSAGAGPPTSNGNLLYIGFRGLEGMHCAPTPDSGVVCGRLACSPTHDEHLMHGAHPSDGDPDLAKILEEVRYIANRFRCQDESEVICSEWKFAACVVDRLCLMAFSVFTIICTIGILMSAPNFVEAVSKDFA

rat α3β4 nAChR = target: T5, rat α3β4 nAChR (Rattus norvegicus, UniProt P04757+P12392); test: cell-based; type: cell-based
T5 construct: expressed in transfected cells; host or cells: Xenopus laevis oocytes, cRNA injected
T5 sequence (P04757 26-499 limits assumed): as the sequence (P04757 26-499 limits assumed) above
T5 sequence (P12392 21-495 limits assumed): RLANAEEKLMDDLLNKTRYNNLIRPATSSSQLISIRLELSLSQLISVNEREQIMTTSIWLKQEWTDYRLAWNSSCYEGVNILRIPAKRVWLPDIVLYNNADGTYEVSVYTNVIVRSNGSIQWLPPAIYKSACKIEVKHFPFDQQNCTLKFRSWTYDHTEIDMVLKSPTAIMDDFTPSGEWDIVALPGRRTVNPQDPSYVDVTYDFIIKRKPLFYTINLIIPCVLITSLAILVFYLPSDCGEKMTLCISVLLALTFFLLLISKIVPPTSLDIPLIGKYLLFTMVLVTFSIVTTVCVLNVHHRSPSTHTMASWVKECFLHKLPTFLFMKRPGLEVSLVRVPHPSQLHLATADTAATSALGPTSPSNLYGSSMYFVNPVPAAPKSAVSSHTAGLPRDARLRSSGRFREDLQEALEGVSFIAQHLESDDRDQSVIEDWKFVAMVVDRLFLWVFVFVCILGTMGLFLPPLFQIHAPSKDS

α2β2 nAChR = target: T6, α2β2 nAChR (Rattus norvegicus, UniProt P12389+P12390); test: cell-based; type: cell-based
T6 construct: expressed in transfected cells; host or cells: Xenopus laevis oocytes, cRNA injected
T6 sequence (P12389 28-511 limits assumed): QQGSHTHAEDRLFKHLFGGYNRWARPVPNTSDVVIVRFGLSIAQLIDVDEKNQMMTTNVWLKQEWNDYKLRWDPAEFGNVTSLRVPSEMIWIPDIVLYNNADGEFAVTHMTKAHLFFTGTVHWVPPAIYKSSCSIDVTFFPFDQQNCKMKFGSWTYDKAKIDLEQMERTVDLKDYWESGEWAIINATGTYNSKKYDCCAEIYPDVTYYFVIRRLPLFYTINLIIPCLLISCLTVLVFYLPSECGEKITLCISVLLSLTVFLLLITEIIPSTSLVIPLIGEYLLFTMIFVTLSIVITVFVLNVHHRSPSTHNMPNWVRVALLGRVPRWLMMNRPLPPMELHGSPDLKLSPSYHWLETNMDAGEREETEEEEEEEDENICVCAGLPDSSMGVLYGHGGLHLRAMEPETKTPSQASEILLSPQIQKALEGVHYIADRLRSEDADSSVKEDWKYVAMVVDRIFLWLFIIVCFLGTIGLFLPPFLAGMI
T6 sequence (P12390 25-500 limits assumed): as the sequence (P12390 25-500 limits assumed) above

α4β4 nAChR = target: T7, α4β4 nAChR (Rattus norvegicus, UniProt P09483+P12392); test: cell-based; type: cell-based
T7 construct: expressed in transfected cells; host or cells: Xenopus laevis oocytes, cRNA injected
T7 sequence (P09483 31-630 limits assumed): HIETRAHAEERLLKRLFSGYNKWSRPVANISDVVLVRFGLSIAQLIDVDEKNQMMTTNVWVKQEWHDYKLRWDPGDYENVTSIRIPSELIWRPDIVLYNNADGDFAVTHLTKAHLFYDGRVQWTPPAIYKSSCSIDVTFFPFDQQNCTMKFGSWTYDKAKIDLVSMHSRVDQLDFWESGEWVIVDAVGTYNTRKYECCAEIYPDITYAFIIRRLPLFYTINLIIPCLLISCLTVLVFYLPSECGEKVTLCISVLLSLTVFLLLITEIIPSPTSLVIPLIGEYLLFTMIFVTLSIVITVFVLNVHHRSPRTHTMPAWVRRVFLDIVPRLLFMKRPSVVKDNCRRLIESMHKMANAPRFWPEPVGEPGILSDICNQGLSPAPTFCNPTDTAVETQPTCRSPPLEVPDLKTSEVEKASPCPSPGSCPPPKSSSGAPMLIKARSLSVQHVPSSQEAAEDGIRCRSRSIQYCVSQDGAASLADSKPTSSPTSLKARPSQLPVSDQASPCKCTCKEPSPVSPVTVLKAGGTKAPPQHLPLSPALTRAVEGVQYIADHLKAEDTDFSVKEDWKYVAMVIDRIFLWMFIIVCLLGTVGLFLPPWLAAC
T7 sequence (P12392 21-495 limits assumed): as the sequence (P12392 21-495 limits assumed) above

[1] = target: Mouse CNS α-MII Site (putative α6β2* nAChRs); type: binding
α2β4 nAChR = target: T8, α2β4 nAChR (Rattus norvegicus, UniProt P12389+P12392); test: cell-based; type: cell-based
T8 construct: expressed in transfected cells; host or cells: Xenopus laevis oocytes, cRNA injected
T8 sequence (P12389 28-511 limits assumed): as the sequence (P12389 28-511 limits assumed) above
T8 sequence (P12392 21-495 limits assumed): as the sequence (P12392 21-495 limits assumed) above

α6/α3β4 nAChR = target: T9, α6/α3β4 nAChR (Rattus norvegicus, UniProt P04757+P12392+P43143); test: cell-based
T9 construct: amino acids 1 to 237 of the rat α6 subunit protein; amino acids 233 to 499 of the rat α3 subunit protein; expressed in transfected cells; host or cells: Xenopus laevis oocytes, cRNA injected
T9 sequence (P43143 31-237 limits assumed): as the sequence (P43143 31-237 limits assumed) above
T9 sequence (P04757 233-499 limits assumed): as the sequence (P04757 233-499 limits assumed) above
T9 sequence (P12392 21-495): as the sequence (P12392 21-495 limits assumed) above

rat α6β4 nAChR = target: T10, rat α6β4 nAChR (Rattus norvegicus, UniProt P12392+P43143); type: cell-based
T10 construct: expressed in transfected cells; host or cells: Xenopus laevis oocytes, cRNA injected (50 ng each)
T10 sequence (P43143 31-493): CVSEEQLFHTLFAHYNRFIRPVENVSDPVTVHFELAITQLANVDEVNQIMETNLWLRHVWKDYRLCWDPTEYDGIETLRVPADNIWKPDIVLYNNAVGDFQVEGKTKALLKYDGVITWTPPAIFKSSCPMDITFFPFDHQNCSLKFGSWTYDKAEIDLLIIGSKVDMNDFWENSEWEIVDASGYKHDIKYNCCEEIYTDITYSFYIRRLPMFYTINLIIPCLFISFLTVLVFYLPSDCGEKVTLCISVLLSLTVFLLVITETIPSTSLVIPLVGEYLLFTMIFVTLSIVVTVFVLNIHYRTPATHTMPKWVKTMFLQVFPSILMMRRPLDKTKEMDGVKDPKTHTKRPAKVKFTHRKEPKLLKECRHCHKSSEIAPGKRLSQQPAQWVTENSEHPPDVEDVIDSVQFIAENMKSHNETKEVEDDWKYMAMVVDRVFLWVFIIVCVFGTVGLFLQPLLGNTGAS
T10 sequence (P12392 21-495): as the sequence (P12392 21-495 limits assumed) above

α4β2 nAChR = target: T11, α4β2 nAChR (Rattus norvegicus, UniProt P09483+P12390); type: cell-based
T11 construct: expressed in transfected cells; host or cells: Xenopus laevis oocytes, cRNA injected
T11 sequence (P09483 31-630 limits assumed): as the sequence (P09483 31-630 limits assumed) above
T11 sequence (P12390 25-500 limits assumed): as the sequence (P12390 25-500 limits assumed) above

Structure (SMILES): CC(C)C[C@@H]1NC(=O)[C@H](Cc2c[nH]cn2)NC(=O)[C@@H]2CSSC[C@H](NC(=O)CN)C(=O)N[C@@H](CSSC[C@@H](C(N)=O)NC(=O)[C@H](CC(C)C)NC(=O)[C@H](CC(N)=O)NC(=O)[C@H](CO)NC(=O)[C@H](Cc3c[nH]cn3)NC(=O)[C@H](C)NC1=O)C(=O)N[C@@H](CO)C(=O)N[C@@H](CC(N)=O)C(=O)N1CCC[C@H]1C(=O)N[C@@H](C(C)C)C(=O)N2 [MII[E11A]] (H-GCCSNPVCHLAHSNLC-NH2; disulfide 2-8, 3-16)
- pIC50 (Rat α6/α3β2β3 nAChR): 9.80
- Ratio nAChR subtype IC50/α6/α3β2β3 IC50, α6/α3β2β3 (Rat α6/α3β2β3 nAChR): 1.00
- pIC50 (α6/α3β2 nAChR): 9.81
- Ratio nAChR subtype IC50/α6/α3β2β3 IC50, α6/α3β2 (α6/α3β2 nAChR): 0.962
- pIC50 (Rat α3β2 nAChR): 8.06
- Ratio IC50 α3β2/IC50 α6/α3β2β3 (Rat α3β2 nAChR): 54.5
- pIC50 (α7 nAChR): 5.98
- Ratio nAChR subtype IC50/α6/α3β2β3 IC50, α7 (α7 nAChR): 6,570
- pIC50 (rat α3β4 nAChR): 5.68
- Ratio nAChR subtype IC50/α6/α3β2β3 IC50, α3β4 (rat α3β4 nAChR): 13,100
- pIC50 (α2β2 nAChR): < 5.00
- Ratio nAChR subtype IC50/α6/α3β2β3 IC50, α2β2 (α2β2 nAChR): >62,500
- pIC50 (α4β4 nAChR): < 5.00
- Ratio nAChR subtype IC50/α6/α3β2β3 IC50, α4β4 (α4β4 nAChR): >62,500
- pKi [1]: 9.57
- pIC50 (α2β4 nAChR): < 5.00
- Ratio nAChR subtype IC50/α6/α3β2β3 IC50, α2β4 (α2β4 nAChR): >62,500
- pIC50 (α6/α3β4 nAChR): 8.19
- Ratio nAChR subtype IC50/α6/α3β2β3 IC50, α6/α3β4 (α6/α3β4 nAChR): 40.3

Structure (SMILES): CC(C)C[C@@H]1NC(=O)[C@H](C)NC(=O)[C@@H]2CSSC[C@H](NC(=O)CN)C(=O)N[C@@H](CSSC[C@@H](C(N)=O)NC(=O)[C@H](C)NC(=O)[C@H](CC(N)=O)NC(=O)[C@H](CO)NC(=O)[C@H](Cc3c[nH]cn3)NC(=O)[C@H](CCC(=O)O)NC1=O)C(=O)N[C@@H](CO)C(=O)N[C@@H](CC(N)=O)C(=O)N1CCC[C@H]1C(=O)N[C@@H](C(C)C)C(=O)N2 [MII[H9A; L15A]] (H-GCCSNPVCALEHSNAC-NH2; disulfide 2-8, 3-16)
- Hill slope, α3β2 (Rat α3β2 nAChR): 0.48±0.04
- ACh response, percentage of control, Rα7 (α7 nAChR): 61.4 ± 2.3 % of control and 100 ± 1.5 % of control
- activity at α7 (in words) (α7 nAChR): low or no activity; also recorded: little or no activity
- Hill slope (nH), α6β4 (rat α6β4 nAChR): 0.60±0.09
- ACh response, percentage of control, Rα4β2 (α4β2 nAChR): 98.5 ± 4.4 % of control and 101 ± 2.5 % of control
- activity at α4β2 (in words) (α4β2 nAChR): low or no activity; also recorded: little or no activity
- Hill slope (nH), α3β4 (rat α3β4 nAChR): 0.75±0.1
- activity at α3β4 (in words) (rat α3β4 nAChR): low or no activity; also recorded: little or no activity
- ACh response, percentage of control, Rα2β2 (α2β2 nAChR): 102 ± 1.4 % of control and 103 ± 1.9 % of control
- activity at α2β2 (in words) (α2β2 nAChR): low or no activity; also recorded: little or no activity
- ACh response, percentage of control, Rα4β4 (α4β4 nAChR): 99.0 ± 4.0 % of control and 100 ± 5.6 % of control
- activity at α4β4 (in words) (α4β4 nAChR): low or no activity; also recorded: little or no activity
- pKi [1]: 8.48
- ACh response, percentage of control, Rα2β4 (α2β4 nAChR): 96.7 ± 3.2 % of control and 95.9 ± 2.3 % of control
- activity at α2β4 (in words) (α2β4 nAChR): low or no activity; also recorded: little or no activity
